Data on 22 molecules can be found in patent publication US10406140B2, “5-substituted benzimidazole and 5-substituted azabenzimidazole derivative both having AMPK activation effect” (Shionogi & Co., Ltd., priority 2016, dated 2019).

In the test the target is T1, Human AMPK α2ß2γ1 (Homo sapiens, UniProt O43741+P54646).
T1 construct: The full length cDNAs of human AMPK ß2 (NM_005399.3) and human AMPK α2 (NM_006252.3); The full length cDNAs of human AMPK ß2 (NM_005399.3); 6xHis (N); made in house; host or cells: Escherichia coli BL21 CodonPlus (DE3)-RIL
T1 sequence (P54646 whole entry): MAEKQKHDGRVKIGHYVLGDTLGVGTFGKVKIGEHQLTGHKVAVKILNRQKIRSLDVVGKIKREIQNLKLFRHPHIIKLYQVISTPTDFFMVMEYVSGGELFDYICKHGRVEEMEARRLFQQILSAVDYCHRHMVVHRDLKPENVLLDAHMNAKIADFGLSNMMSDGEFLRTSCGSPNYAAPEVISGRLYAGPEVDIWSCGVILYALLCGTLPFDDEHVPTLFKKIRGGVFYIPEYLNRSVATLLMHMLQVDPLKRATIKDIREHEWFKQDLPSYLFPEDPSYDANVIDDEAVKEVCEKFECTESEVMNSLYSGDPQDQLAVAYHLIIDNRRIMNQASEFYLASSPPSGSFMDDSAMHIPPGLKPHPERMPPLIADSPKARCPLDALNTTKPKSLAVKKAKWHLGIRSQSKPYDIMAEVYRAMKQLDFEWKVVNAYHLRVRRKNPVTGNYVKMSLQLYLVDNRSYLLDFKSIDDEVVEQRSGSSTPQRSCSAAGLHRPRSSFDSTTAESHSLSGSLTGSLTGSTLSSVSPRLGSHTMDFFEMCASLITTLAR
T1 sequence (O43741 whole entry): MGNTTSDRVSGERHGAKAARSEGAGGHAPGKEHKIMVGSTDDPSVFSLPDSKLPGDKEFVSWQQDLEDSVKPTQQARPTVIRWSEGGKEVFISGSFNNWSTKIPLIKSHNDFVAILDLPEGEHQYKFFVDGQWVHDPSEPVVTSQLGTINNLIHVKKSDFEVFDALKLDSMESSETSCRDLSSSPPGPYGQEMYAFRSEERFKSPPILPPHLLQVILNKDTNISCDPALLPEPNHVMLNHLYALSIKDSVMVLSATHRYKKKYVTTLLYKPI
T1 sequence (P54619 whole entry partner): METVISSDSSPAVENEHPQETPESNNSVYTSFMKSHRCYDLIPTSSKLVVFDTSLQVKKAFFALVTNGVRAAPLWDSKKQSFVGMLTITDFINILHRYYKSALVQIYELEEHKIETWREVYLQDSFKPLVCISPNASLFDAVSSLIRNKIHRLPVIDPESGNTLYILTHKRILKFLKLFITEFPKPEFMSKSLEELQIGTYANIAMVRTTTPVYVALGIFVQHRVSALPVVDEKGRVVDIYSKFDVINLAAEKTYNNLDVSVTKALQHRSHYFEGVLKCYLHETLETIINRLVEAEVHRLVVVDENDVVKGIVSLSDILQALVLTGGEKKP
Kind of test: Test Example 2: activator evaluation on phosphorylated human AMPK α2ß2γ1 (mobility-shift assay, FL-Peptide 7). The format is biochemical. Particulars: human AMPK α2ß2γ1 pre-phosphorylated with CaMKK2; for EC150 (compound concentration showing 150% relative to the control (100%)): 25° C., 2 hours, 1% DMSO; for Emax: control without compound = 100%, read-out: Emax (maximum rate of increase in activity within the measurement range). The procedure:
The full length cDNAs of human AMPK ß2 (NM_005399.3) and human AMPK α2 (NM_006252.3) were inserted into the MCS1 and MCS2 of the pETDuet-1 vector to prepare a human AMPK ß2 and human AMPK α2 (6× His tag at the 5′ terminus) expressing plasmid. The plasmid was cotransfected with an expression plasmid, in which the full length cDNA of human AMPK γ1 (NM_002733.3) had been inserted into pET28b(+), into BL21 CodonPlus (DE3)-RIL to obtain an expression strain. The expression strain was cultured in TB medium, followed by induction with 0.5 mM IPTG, and cultured at 25° C. for 3 hours and then harvested.
Preparation method of human CaMKK2 used to impart activity to AMPK An expression vector, in which the full length cDNA of human CAMKK ß (NM_172226.1) had been inserted into pGEX-6P-3, was transfected into BL21 Star (DE3). The expression strain was cultured in TB medium, followed by induction with 0.5 mM IPTG, and cultured at 25° C. for 3 hours and then harvested.
Thus, phosphorylation treatment was carried out as pretreatment.
Human AMPK α2ß2γ1 in an amount to give a conversion rate of approximately 10% by reaction for 2 hours, and CaMKK2 in an amount capable of sufficiently imparting activity to AMPK for one hour were mixed in a buffer solution consisting of a 50 mM HEPES-NaOH buffer solution (pH 7.0), 100 mM NaCl, 5 mM magnesium chloride, 0.1% bovine serum albumin, 0.2 mM sodium orthovanadate(V), 1 mM ethylene glycol-bis(2-aminoethyl ether)-N,N,N′,N′-tetraacetic acid (EGTA), 5 mM disodium ß-glycerophosphate, 1 mM dithiothreitol and 0.2 mM ATP, and the resulting liquid was left to stand at 25° C. for 1 to 1.5 hours to sufficiently phosphorylate AMPK.
The resulting liquid was left to stand for 10 minutes.
The resulting liquid was allowed to react at 25° C. for 2 hours, and 10 μl of 20 mM EDTA was added thereto to stop the reaction.
To detect phosphorylated fluorescent substrates, the reaction mixture was applied to a measuring device, LabChip EZ Reader II manufactured by Caliper Life Science, Inc., for detecting fluorescence by using differences in mobility due to differences in charge. The setting conditions for the device were pressure, −1.5 PSI; upstream voltage, −2250 V; downstream voltage, −400 V; post sample buffer sip time, 40 seconds; final delay, 120 seconds; and peak order, Product First.
A conversion rate was calculated from the peak heights of the obtained substrate and product. The conversion rate when not containing a compound was used as a control, and a concentration dependent curve was made by plotting the rate of increase in activity to the control at each concentration of a compound.

The Emax is the size of the effect at its maximum, as opposed to the concentration needed.

With `CS(C)(=O)=Nc1ccc(-c2ccc(-c3nc4nc(O[C@@H]5CO[C@H](CO)[C@H]5F)[nH]c4cc3F)cc2)cc1` [Compound (I-1-10)], the “EC150 (compound concentration showing 150% relative to the control (100%))” value amounted to 3.1 nM and the Emax was determined as 399%.
As to `CCS(=O)(CC)=Nc1ccc(-c2ccc(-c3nc4nc(O[C@@H]5CO[C@H](CO)C5(F)F)[nH]c4cc3Cl)cc2)cc1` [Compound (I-2-5)], the “EC150 (compound concentration showing 150% relative to the control (100%))” value amounted to 6.2 nM and the Emax is 575%.
Turning to `CS(C)(=O)=Nc1ccc(-c2ccc(-c3nc4nc(O[C@@H]5CO[C@H](CO)[C@H]5F)[nH]c4cc3Cl)cc2)cc1` [Compound (I-1-5)], the “EC150 (compound concentration showing 150% relative to the control (100%))” value is reported as 1.4 nM and the Emax amounted to 539%.
The corresponding values for `CN=S(C)(=N)c1ccc(-c2ccc(-c3nc4nc(O[C@@H]5CO[C@H](CO)C5(F)F)[nH]c4cc3F)cc2)cc1` (some centres unmarked) [Compound (I-2-11)] are 1.2 nM and 649%.
Take `CS(C)(=O)=Nc1ccc(-c2ccc(-c3nc4nc(O[C@@H]5CO[C@H](CO)C5(F)F)[nH]c4cc3Cl)c(F)c2)cc1` [Compound (I-2-3)]: the “EC150 (compound concentration showing 150% relative to the control (100%))” value worked out at 4.2 nM and the Emax was 609%.
The corresponding values for `CS(C)(=O)=Nc1ccc(-c2ccc(-c3nc4nc(O[C@@H]5CO[C@H](CO)C5(F)F)[nH]c4cc3F)c(F)c2)cc1` [Compound (I-2-8)] are 0.75 nM and 619%.
In the case of `CS(C)(=O)=Nc1ccc(-c2ccc(-c3nc4nc(OCCO)[nH]c4cc3Cl)cc2)cc1` [Compound (I-1-3)], the “EC150 (compound concentration showing 150% relative to the control (100%))” value came to 19 nM and the maximal response (Emax) came to 235%.
As to `CCS(=O)(CC)=Nc1ccc(-c2ccc(-c3nc4nc(O[C@@H]5CO[C@H](CO)C5(F)F)[nH]c4cc3F)cc2)cc1` [Compound (I-2-12)], the “EC150 (compound concentration showing 150% relative to the control (100%))” value worked out at 0.54 nM and the Emax is 595%.
On the same counts, the results for `COC(=O)NC1CC=C(c2ccc(-c3nc4nc(O[C@@H]5CO[C@H](CO)[C@H]5F)[nH]c4cc3Cl)cc2)CC1` (some centres unmarked) [Compound (I-1-8)] are 21 nM and 412%.
As for `CS(C)(=O)=NC1CC=C(c2ccc(-c3nc4nc(O[C@@H]5CO[C@H](CO)C5(F)F)[nH]c4cc3F)cc2)CC1` (some centres unmarked) [Compound (I-2-10)], the “EC150 (compound concentration showing 150% relative to the control (100%))” value is 2.1 nM and the Emax is 604%.
For the molecule `COC(=O)NC1CC=C(c2ccc(-c3nc4nc(O[C@@H]5CO[C@H](CO)C5(F)F)[nH]c4cc3Cl)cc2)CC1` (some centres unmarked) [Compound (I-1-9)], the “EC150 (compound concentration showing 150% relative to the control (100%))” value is recorded as 9.5 nM and the Emax worked out at 389%.
On the same counts, the results for `CN=S(C)(=N)c1ccc(-c2ccc(-c3nc4nc(O[C@@H]5CO[C@H](CO)C5(F)F)[nH]c4cc3Cl)cc2)cc1` (some centres unmarked) [Compound (I-2-2)] are 3.1 nM and 604%.
As for `O=S1(=Nc2ccc(-c3ccc(-c4nc5nc(O[C@@H]6CO[C@H](CO)C6(F)F)[nH]c5cc4Cl)cc3)cc2)CCOCC1` [Compound (I-2-6)], the “EC150 (compound concentration showing 150% relative to the control (100%))” value was 3.0 nM and the Emax was 578%.
As for `CS(C)(=O)=Nc1ccc(-c2ccc(-c3nc4nc(O[C@@H]5CO[C@H](CO)C5(F)F)[nH]c4cc3Cl)cc2)cc1` [Compound (I-1-7)], the “EC150 (compound concentration showing 150% relative to the control (100%))” value was found to be 2.1 nM and the Emax was found to be 504%.
On the same counts, the results for `CC(=O)NC(C)(C)c1ccc(Oc2nc3nc(-c4ccc(-c5ccc(N=S(C)(C)=O)cc5)cc4)c(Cl)cc3[nH]2)cc1` [Compound (I-1-4)] are 3.8 nM and 364%.
On to `CS(C)(=O)=Nc1ccc(-c2ccc(-c3nc4nc(O[C@@H]5CO[C@H](CO)[C@@H]5F)[nH]c4cc3Cl)cc2)cc1` [Compound (I-1-6)], for which the “EC150 (compound concentration showing 150% relative to the control (100%))” value amounted to 7.4 nM and the Emax worked out at 514%.
As for `CS(C)(=O)=Nc1ccc(-c2ccc(-c3nc4nc(O[C@@H]5CO[C@H](CO)C5(F)F)[nH]c4cc3F)cc2)cc1` [Compound (I-1-11)], the “EC150 (compound concentration showing 150% relative to the control (100%))” value came to 1.1 nM and the Emax was 601%.
On the same counts, the results for `CS(C)(=O)=NC1CC=C(c2ccc(-c3nc4nc(O[C@@H]5CO[C@H](CO)C5(F)F)[nH]c4cc3Cl)cc2)CC1` (some centres unmarked) [Compound (I-2-9)] are 1.3 nM and 652%.
On to `CS(C)(=O)=Nc1ccc(-c2ccc(-c3nc4nc(O[C@@H]5CO[C@H]6[C@@H]5OC[C@H]6O)[nH]c4cc3F)cc2)cc1` [Compound (I-1-2)], for which the “EC150 (compound concentration showing 150% relative to the control (100%))” value was determined as 0.93 nM and the Emax came to 556%.
On the same counts, the results for `CS(C)(=O)=Nc1ccc(-c2ccc(-c3nc4nc(O[C@@H]5CO[C@H](CO)C5(F)F)[nH]c4cc3F)cc2)nc1` [Compound (I-2-7)] are 3.1 nM and 445%.
Consider `CNS(C)(=O)=Nc1ccc(-c2ccc(-c3nc4nc(O[C@@H]5CO[C@H](CO)C5(F)F)[nH]c4cc3Cl)cc2)cc1` (some centres unmarked) [Compound (I-1-12)], for which the “EC150 (compound concentration showing 150% relative to the control (100%))” value was determined as 2.4 nM and the Emax was determined as 649%.
Consider `CS(C)(=O)=Nc1ccc(-c2ccc(-c3nc4nc(O[C@@H]5CO[C@H](CO)C5(F)F)[nH]c4cc3Cl)cc2)nc1` [Compound (I-2-4)], for which the “EC150 (compound concentration showing 150% relative to the control (100%))” value is 9.7 nM and the Emax amounted to 493%.
